“And” between values parts separate entries of the source, which are not always exact repeats. Equal entries are not always repeated.
Tests used:
ABCA1 protein = experiment: ABCA1 western blot in podocyte whole-cell lysates; format: cell-based, human; settings: Cpd G 10 µM, Cpd A 5 µM; podocytes
Experimental: Cell lines were purchased from ATCC and subcultured for no more than passage 15, except for human podocytes, which were originally from Dr Jochen Reiser. Conditionally immortalized human podocytes were cultured under permissive conditions at 33 °C, in RPMI medium (Corning) containing 10% FBS (GIBCO), 1% penicillin/streptomycin, 0.01 mg/ml recombinant human insulin, 0.0055 mg/ml human transferrin (substantially iron-free), and 0.005 μg/ml sodium selenite (ITS, Corning). To induce differentiation, podocytes were cultured at 37 °C for 14 days in RPMI medium containing 10% FBS (GIBCO) and 1% penicillin/streptomycin. Differentiated podocytes were starved in RPMI-0.2% FBS for 18 h and then treated with 1 μM, 5 μM, and 10 μM of compounds freshly prepared in DMSO for 18 h at 37 °C as indicated.
Lysates, or cell fractions were incubated in Laemmli buffer at 55 °C for 10 min under reducing conditions. A total of 30 μg of protein from cell lysates or one-third of the volume collected in cell fraction preparations was separated by SDS-PAGE in 4–20% gradient gels (Biorad) and proteins were then transferred to PVDF membranes. […] Signals were detected after incubation with Westernbright ECL HRP substrate (Advansta) and luminescence signals were captured with Azure C600 Gel Imaging workstation (Azure Biosystems Inc, USA) or X-ray films.

[1] = system: Adriamycin (ADR)-induced nephropathy in Balb/c mice; experiment: ADR nephropathy: immunofluorescence of glomerular ABCA1 and WT1+ podocyte number; format: in vivo, mouse; settings: for Glomerular ABCA1 mean fluorescence intensity, mean / Number of Podocytes (WT1+ cells in glomeruli), mean / Glomerular ABCA1 mean fluorescence intensity / Number of Podocytes (WT1+ cells in glomeruli): ADR; for Glomerular ABCA1 mean fluorescence intensity, mean / Number of Podocytes (WT1+ cells in glomeruli), mean: group mean; for Glomerular ABCA1 mean fluorescence intensity / Number of Podocytes (WT1+ cells in glomeruli): individual mice
Experimental: For the detection of ABCA1 expression, 4 μm paraffin kidney cortex sections were deparaffinized and rehydrated. Antigens were retrieved by boiling for 30 min in citrate buffer pH 6.0 (Target Retrieval Solution, Citrate pH 6, Sigma, USA). The sections were permeabilized for 30 min with 0.1% Triton X-100 in TBS. Tissue sections were incubated with 10% goat serum (cat # G9023, Millipore Sigma) and 1% BSA (cat # SP-5050-500, Vector, USA) in TBS-T for 1hr at room temperature to block any non-specific binding. Samples were then incubated overnight at 4 °C with Rat anti-ABCA1 (Novus, 1:200) and Rabbit anti-WT1 (Abcam, 1:200) antibodies in a humidified chamber. After washing extensively, samples were then incubated for 1 h at RT with fluorochrome-conjugated secondary antibodies (Invitrogen, 1:500). Antifade mounting media containing DAPI (Vectashield Plus) was added to the sections before being analyzed.
Images were acquired using a FluoView FV1000 Confocal Microscope (Olympus) with a ×63 oil objective lens in different planes using a Z-series pattern with a step size of 0.18 μm. During analysis, individual planes were deconvoluted and stacked to produce a maximum projected image using fluview software version 4.3b (Olympus). A minimum of 5 images was captured from 5 different fields per sample. Quantification of ABCA1 glomerular mean fluorescence intensity (MFI) was done using Fiji—ImageJ software.

Col4a3 KO mice [2] = experiment: Alport syndrome model: kidney cortex cholesterol ester, total cholesterol, triglycerides; format: in vivo, mouse
Experimental: Snap frozen kidney cortex samples were homogenized in 2 mM potassium phosphate buffer, pH 7, (10 µl buffer/mg tissue) using a glass douncer on ice. 100 μl of the homogenate were mixed thoroughly with 1 ml of hexane:isopropanol (3:2;v:v) per volume of tissue homogenate. The aqueous (pellet) and organic (supernatant) phases were separated by centrifugation at 12,000 × g for 5 min. Pellets (aqueous phase) were dried, reconstituted in 8 M urea, 0.1% SDS, 0.1 M NaOH, and total proteins were quantified by the BCA method (Thermofisher). The organic phase was dried by exposure to nitrogen. Lipids were then reconstituted in 100 µl isopropanol:NP-40 (9:1;v:v). Triglyceride content was assayed using a colorimetric kit according to the manufacturer’s instructions (Cayman Chemical USA). Total cholesterol and CE content were assayed using an enzymatic fluorometric method. For total cholesterol measurement, extracts were diluted 1:100 in assay buffer (100 mM potassium phosphate, 50 mM NaCl, 5 mM cholic acid, 0.1% Triton […], pH 7.4) containing cholesterol oxidase (1 U/ml), cholesterol esterase (1 U/ml), horseradish peroxidase (1 U/ml), and Amplex Red (75 µM). The reactions were incubated at 37 °C for 30 min in a black opaque 96-well plate (Greiner) and fluorescence was measured in a microplate reader (Spectramax i3X, Molecular Devices) at 530 nm excitation and 580 emission.
For CE determination, 150 µl of the assay buffer described above, supplemented with bovine liver catalase (45 U/ml) and cholesterol oxidase (1 U/ml), was added to 25 μl of sample and incubated overnight at 37 °C to deplete free cholesterol leaving only cholesterol esters. Then, 75 µl of cholesterol ester detection reagent (1 U/ml cholesterol oxidase, 4 U/ml cholesterol esterase, 24 U/ml horseradish peroxidase, 300 µM Amplex Red) was added. The reaction was incubated at 37 °C for 30 min and the fluorescence signal was measured as described above. Internal standards included samples containing 1 mM of cholesterol and 5 μM of cholesterol oleate in order to verify the completeness of the enzymatic decomposition of free cholesterol as well as assay sensitivity and specificity.

PgP = PgP inhibition; format: in vitro ADME
Covalent Binding = format: in vitro ADME
Col4a3 KO mice [3] = experiment: Alport syndrome model: survival study, treatment from 6 weeks of age
[4] = Col4a3 KO mice at the age of 8 weeks, individual mouse values

SMILES	ABCA1 protein levels in whole-cell lysates (ABCA1 protein)	Glomerular ABCA1 mean fluorescence intensity, mean ([1]; 30mg/kg)	Number of Podocytes (WT1+ cells in glomeruli), mean ([1]; 30mg/kg)	Glomerular ABCA1 mean fluorescence intensity ([1]; 30mg/kg)	Number of Podocytes (WT1+ cells in glomeruli) ([1]; 30mg/kg)	Glomerular ABCA1 mean fluorescence intensity, mean ([1]; 100mg/kg)	Number of Podocytes (WT1+ cells in glomeruli), mean ([1]; 100mg/kg)	Glomerular ABCA1 mean fluorescence intensity ([1]; 100mg/kg)	Number of Podocytes (WT1+ cells in glomeruli) ([1]; 100mg/kg)	ADR-induced glomerular degeneration with podocyte loss and loss of ABCA1 expression ([1]; immunofluorescence of renal cortex sections)	RENAL CHOL.ESTERS, Median (Col4a3 KO mice [2]; Col4A3 KO mice, treated for 28 days, group median)	RENAL CHOL.ESTERS (CE normalized to total proteins, kidney) (Col4a3 KO mice [2]; Col4A3 KO mice, treated for 28 days, individual animals)	Renal Total Cholesterol (Col4a3 KO mice [2]; [4])	Renal Trig. (Col4a3 KO mice [2]; [4])	Cholesterol ester content in kidneys (Col4a3 KO mice [2]; Col4a3 KO, Cpd G 28 days)	PgP inhibition (PgP)	Covalent Binding (Covalent Binding)	SURVIVAL CURVE: day with status 1= dead (Col4a3 KO mice [3]; Col4A3 KO, Cpd G 100 mg/Kg/day started at week 6, single animals)	Increased life span compared to controls (Col4a3 KO mice [3]; Col4a3 KO, treatment initiated at 6 weeks of age)
O=C(N[C@@H]1CCCC[C@H]1O)c1ccc(OCC(F)(F)F)c(-c2ccc(Cl)c(Cl)c2)n1 [Cpd A]	significantly increased ABCA1 protein levels	–	–	–	–	–	–	–	–	–	–	–	–	–	–	–	–	–	–
O=C(N[C@@H]1CCCC[C@H]1O)c1cnc(OCC(F)(F)F)c(-c2ccc(Cl)c(Cl)c2)c1 [Cpd G]	–	13.76	9.133	13.36 and 14.02 and 13.9	11 and 9.6 and 6.8	20.2467	14.8667	19.7 and 21.32 and 19.72	15.4 and 14.2 and 15	prevented	2.615 nmol CE/ mg protein	4.92 nmol CE/ mg protein and 2.49 nmol CE/ mg protein and 0.13 nmol CE/ mg protein and 2.74 nmol CE/ mg protein	40.2 nmol TC/ mg protein and 29.4 nmol TC/ mg protein and 30.8 nmol TC/ mg protein	89.04 nmol TG/ mg protein and 64.42 nmol TG/ mg protein and 121.19 nmol TG/ mg protein and 83.13 nmol TG/ mg protein	significantly reduced cholesterol ester content	Negative	No flag	67 days and 70 days and 73 days and 78 days	approximately 15%
